Assay results from patent US12110295B2, “WD40 repeat domain protein 5 (WDR5) degradation/disruption compounds and methods of use” (Icahn School of Medicine at Mount Sinai, priority 2018, dated 2024).

Target: WDR5 (Homo sapiens, UniProt P61964)
Assay: Screening of putative WDR5 degraders by Western blot in MV4;11 and/or MIAPACA2 cells
Type: cell-based
Design: After WDR5 degrader treatment, cells were collected and lysed; endogenous in cells; host or cells: MV4;11 and/or MIAPACA2
Settings: summary of screening, FIGS. 6-10
Method in brief: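 MV4;11 (1×10^6/well) or MIAPACA2 (1×10^5/well) cells treated 18 h with compound at paired doses between 0.1 and 10 μM, DMSO as control. Total lysates immunoblotted for WDR5 with vinculin, tubulin or GAPDH loading controls; fluorescent secondary detection.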

| effective degradation of WDR5 in MV4;11 and/or MIAPACA2 cells | SMILES |
| --- | --- |
| able to effectively degrade WDR5 | C[C@@H]1CN(c2cc(F)c(C3=CCN(c4ncc(CN5CCN(C(=O)CCOCCOCCOCCOCCOCCNc6cccc7c6C(=O)N(C6CCC(=O)NC6=O)C7=O)CC5)cn4)CC3)cc2NC(=O)c2c[nH]c(=O)cc2C(F)(F)F)C[C@H](C)N1C (stereo partly drawn) [XF078-160, N-(5-(1-(5-((4-(1-((2-(2,6-dioxopiperidin-3-yl)-1,3-dioxoisoindolin-4-yl)amino)-3,6,9,12,15-pentaoxaoctadecan-18-oyl)piperazin-1-yl)methyl)pyrimidin-2-yl)-1,2,3,6-tetrahydropyridin-4-yl)-4-fluoro-2-((3S,5R)-3,4,5-trimethylpiperazin-1-yl)phenyl)-6-oxo-4-(trifluoromethyl)-1,6-dihydropyridine-3-carboxamide] |
| able to effectively degrade WDR5 | CN1CCN(c2ccc(-c3cccc(CN4CCN(CCNC(=O)CCCCCCCOc5cccc6c5C(=O)N(C5CCC(=O)NC5=O)C6=O)CC4)c3)cc2NC(=O)c2c[nH]c(=O)cc2C(F)(F)F)CC1 (stereo not drawn) [XF056-39, N-(3′-((4-(2-(8-((2-(2,6-dioxopiperidin-3-yl)-1,3-dioxoisoindolin-4-yl)oxy)octanamido)ethyl)piperazin-1-yl)methyl)-4-(4-methylpiperazin-1-yl)-[1,1′-biphenyl]-3-yl)-6-oxo-4-(trifluoromethyl)-1,6-dihydropyridine-3-carboxamide] |
| able to effectively degrade WDR5 | Cc1ncsc1-c1ccc(CNC(=O)[C@@H]2C[C@@H](O)CN2C(=O)[C@@H](NC(=O)CCOCCC(=O)N2CCN(Cc3cnc(N4CC=C(c5cc(NC(=O)c6c[nH]c(=O)cc6C(F)(F)F)c(N6C[C@@H](C)N(C)[C@@H](C)C6)cc5F)CC4)nc3)CC2)C(C)(C)C)cc1 [XF078-133, N-(4-fluoro-5-(1-(5-((4-(3-(3-(((S)-1-((2S,4R)-4-hydroxy-2-((4-(4-methylthiazol-5-yl)benzyl)carbamoyl)pyrrolidin-1-yl)-3,3-dimethyl-1-oxobutan-2-yl)amino)-3-oxopropoxy)propanoyl)piperazin-1-yl)methyl)pyrimidin-2-yl)-1,2,3,6-tetrahydropyridin-4-yl)-2-((3S,5R)-3,4,5-trimethylpiperazin-1-yl)phenyl)-6-oxo-4-(trifluoromethyl)-1,6-dihydropyridine-3-carboxamide] |
| able to effectively degrade WDR5 | Cc1ncsc1-c1ccc(CNC(=O)[C@@H]2C[C@@H](O)CN2C(=O)[C@@H](NC(=O)CCOCCOCCOCCC(=O)N2CCN(Cc3cnc(N4CC=C(c5cc(NC(=O)c6c[nH]c(=O)cc6C(F)(F)F)c(N6C[C@@H](C)N(C)[C@@H](C)C6)cc5F)CC4)nc3)CC2)C(C)(C)C)cc1 [XF078-137, N-(4-fluoro-5-(1-(5-((4-((S)-15-((2S,4R)-4-hydroxy-2-((4-(4-methylthiazol-5-yl)benzyl)carbamoyl)pyrrolidine-1-carbonyl)-16,16-dimethyl-13-oxo-4,7,10-trioxa-14-azaheptadecanoyl)piperazin-1-yl)methyl)pyrimidin-2-yl)-1,2,3,6-tetrahydropyridin-4-yl)-2-((3S,5R)-3,4,5-trimethylpiperazin-1-yl)phenyl)-6-oxo-4-(trifluoromethyl)-1,6-dihydropyridine-3-carboxamide] |
| able to effectively degrade WDR5 | Cc1ncsc1-c1ccc(CNC(=O)[C@@H]2C[C@@H](O)CN2C(=O)[C@@H](NC(=O)COCCOCC(=O)N2CCN(Cc3cnc(N4CC=C(c5cc(NC(=O)c6c[nH]c(=O)cc6C(F)(F)F)c(N6C[C@@H](C)N(C)[C@@H](C)C6)cc5F)CC4)nc3)CC2)C(C)(C)C)cc1 [XF078-134, N-(4-fluoro-5-(1-(5-((4-(2-(2-(2-(((S)-1-((2S,4R)-4-hydroxy-2-((4-(4-methylthiazol-5-yl)benzyl)carbamoyl)pyrrolidin-1-yl)-3,3-dimethyl-1-oxobutan-2-yl)amino)-2-oxoethoxy)ethoxy)acetyl)piperazin-1-yl)methyl)pyrimidin-2-yl)-1,2,3,6-tetrahydropyridin-4-yl)-2-((3S,5R)-3,4,5-trimethylpiperazin-1-yl)phenyl)-6-oxo-4-(trifluoromethyl)-1,6-dihydropyridine-3-carboxamide] |
| able to effectively degrade WDR5 | Cc1ncsc1-c1ccc(CNC(=O)[C@@H]2C[C@@H](O)CN2C(=O)[C@@H](NC(=O)CCCCCCCCCCCC(=O)NCCN2CCN(Cc3cccc(-c4ccc(N5CCN(C)CC5)c(NC(=O)c5c[nH]c(=O)cc5C(F)(F)F)c4)c3)CC2)C(C)(C)C)cc1 [XF050-161, N^1-((S)-1-((2S,4R)-4-hydroxy-2-((4-(4-methylthiazol-5-yl)benzyl)carbamoyl)pyrrolidin-1-yl)-3,3-dimethyl-1-oxobutan-2-yl)-N^13-(2-(4-((4′-(4-methylpiperazin-1-yl)-3′-(6-oxo-4-(trifluoromethyl)-1,6-dihydropyridine-3-carboxamido)-[1,1′-biphenyl]-3-yl)methyl)piperazin-1-yl)ethyl)tridecanediamide] |
| able to effectively degrade WDR5 | Cc1ncsc1-c1ccc(CNC(=O)[C@@H]2C[C@@H](O)CN2C(=O)[C@@H](NC(=O)CCCCCCCC(=O)NCCN2CCN(Cc3ccc(F)c(-c4ccc(N5C[C@@H](C)N(C)[C@@H](C)C5)c(NC(=O)c5c[nH]c(=O)cc5C(F)(F)F)c4)c3)CC2)C(C)(C)C)cc1 [XF078-15, N^1-(2-(4-((6-fluoro-3′-(6-oxo-4-(trifluoromethyl)-1,6-dihydropyridine-3-carboxamido)-4′-((3S,5R)-3,4,5-trimethylpiperazin-1-yl)-[1,1′-biphenyl]-3-yl)methyl)piperazin-1-yl)ethyl)-N^9-((S)-1-((2S,4R)-4-hydroxy-2-((4-(4-methylthiazol-5-yl)benzyl)carbamoyl)pyrrolidin-1-yl)-3,3-dimethyl-1-oxobutan-2-yl)nonanediamide] |
| able to effectively degrade WDR5 | C[C@@H]1CN(c2cc(F)c(C3=CCN(c4ncc(CN5CCN(C(=O)CCOCCOCCNc6cccc7c6C(=O)N(C6CCC(=O)NC6=O)C7=O)CC5)cn4)CC3)cc2NC(=O)c2c[nH]c(=O)cc2C(F)(F)F)C[C@H](C)N1C (stereo partly drawn) [XF078-157, N-(5-(1-(5-((4-(3-(2-(2-((2-(2,6-dioxopiperidin-3-yl)-1,3-dioxoisoindolin-4-yl)amino)ethoxy)ethoxy)propanoyl)piperazin-1-yl)methyl)pyrimidin-2-yl)-1,2,3,6-tetrahydropyridin-4-yl)-4-fluoro-2-((3S,5R)-3,4,5-trimethylpiperazin-1-yl)phenyl)-6-oxo-4-(trifluoromethyl)-1,6-dihydropyridine-3-carboxamide] |

| SMILES | effective degradation of WDR5 in MV4;11 and/or MIAPACA2 cells |
| --- | --- |
| Cc1ncsc1-c1ccc(CNC(=O)[C@@H]2C[C@@H](O)CN2C(=O)[C@@H](NC(=O)CCCCC(=O)N2CCN(c3ncc(-c4cc(NC(=O)c5ccc(F)cc5C(F)(F)F)c(N5C[C@@H](C)N(C)[C@@H](C)C5)cc4F)cn3)CC2)C(C)(C)C)cc1 [XF078-110, (2S,4R)-1-((S)-2-(6-(4-(5-(2-fluoro-5-(4-fluoro-2-(trifluoromethyl)benzamido)-4-((3S,5R)-3,4,5-trimethylpiperazin-1-yl)phenyl)pyrimidin-2-yl)piperazin-1-yl)-6-oxohexanamido)-3,3-dimethylbutanoyl)-4-hydroxy-N-(4-(4-methylthiazol-5-yl)benzyl)pyrrolidine-2-carboxamide] | able to effectively degrade WDR5 |
